Measured values taken from ChEMBL document CHEMBL1124687, “Analogues of atriopeptin(103-125)amide having high binding selectivity” (J Med Chem, 1989).
Positions of bridges follow the written chain, without caps; N, C: chain ends. Non-standard residues stand in square brackets, D forms with d. Residues, ends and D or L forms follow the SMILES beside them. ξ: configuration not given here. Nva = CCC[C@H](N)C(=O)O; ξA = CC(N)C(=O)O

Key:
[1] = biological target: Atrial natriuretic peptide receptor (Homo sapiens) (UniProt P20594+P16066+P17342); experiment: Selectivity factor, ratio of NVR and VR relative binding potency; type: protein assay; conditions: Oryctolagus cuniculus
[2] = biological target: T1, Atrial natriuretic peptide receptor 3 (Homo sapiens) (UniProt P17342); experiment: Binding affinity for non-vasorelaxant receptor by competitive displacement of [125I]-AP(103-126) from rabbit lung membranes; type: tissue-based; conditions: Oryctolagus cuniculus, Membrane, target entry is the homologue from another species
T1 sequence (whole entry): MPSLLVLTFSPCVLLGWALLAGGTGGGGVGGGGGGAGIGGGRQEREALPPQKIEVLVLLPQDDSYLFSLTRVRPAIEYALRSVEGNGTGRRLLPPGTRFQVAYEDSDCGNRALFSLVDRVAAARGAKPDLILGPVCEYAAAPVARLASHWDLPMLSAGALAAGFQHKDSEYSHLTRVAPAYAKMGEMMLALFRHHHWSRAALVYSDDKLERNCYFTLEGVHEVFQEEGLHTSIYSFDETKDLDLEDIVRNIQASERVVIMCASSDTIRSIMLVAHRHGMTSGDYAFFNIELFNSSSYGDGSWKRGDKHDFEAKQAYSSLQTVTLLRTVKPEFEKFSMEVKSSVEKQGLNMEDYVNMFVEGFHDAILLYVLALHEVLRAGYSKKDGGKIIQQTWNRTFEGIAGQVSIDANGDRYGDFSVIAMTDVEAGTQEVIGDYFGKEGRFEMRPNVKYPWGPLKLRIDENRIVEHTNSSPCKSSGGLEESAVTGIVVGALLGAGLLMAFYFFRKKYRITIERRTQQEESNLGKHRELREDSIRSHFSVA

[3] = species: Oryctolagus cuniculus; experiment: Binding affinity for vasorelaxant receptor by competitive displacement of [125I]-AP(103-126) from rabbit lung membranes; type: tissue-based; conditions: Membrane

Row | SMILES | Ratio [1] | Relative potency [2] | Relative potency [3]
1 | CC[C@H](C)[C@@H]1NC(=O)[C@H](CCCN=C(N)N)NC(=O)[C@H](CC(=O)O)NC(=O)[C@H]([C@@H](C)CC)NC(=O)[C@H](CCCN=C(N)N)NC(=O)CNC(=O)CNC(=O)[C@H](Cc2ccccc2)NC(=O)C(C)NC(=O)[C@@H](NC(=O)[C@@H](N)CO)CSSC[C@@H](C(=O)N[C@@H](CO)C(=O)N[C@@H](Cc2ccccc2)C(=O)N[C@@H](CCCN=C(N)N)C(N)=O)NC(=O)C(C)NC(=O)CNC(=O)[C@H](CC(C)C)NC(=O)CNC(=O)[C@H](CO)NC(=O)[C@H](CCC(N)=O)NC(=O)[C@H](C)NC(=O)CNC1=O (some centres not stated) (H-SC[ξA]FGGRIDRIGAQSGLG[ξA]CSFR-NH2; disulfide 2-20) | 464 | 1.3 | 0.0028
2 | CC[C@H](C)[C@@H]1NC(=O)[C@H](CCCN=C(N)N)NC(=O)[C@H](CC(=O)O)NC(=O)[C@H]([C@@H](C)CC)NC(=O)[C@H](CCCN=C(N)N)NC(=O)[C@@H](NC(=O)CNC(=O)[C@H](Cc2ccccc2)NC(=O)[C@H](C)NC(=O)[C@H](CO)NC(=O)[C@@H](N)CO)CSSC[C@@H](C(=O)NCC(=O)N[C@@H](CC(C)C)C(=O)NCC(=O)N[C@@H](C)C(=O)N[C@@H](CC(N)=O)C(=O)N[C@@H](CO)C(=O)N[C@@H](Cc2ccccc2)C(=O)N[C@@H](CCCN=C(N)N)C(N)=O)NC(=O)[C@H](CCC(N)=O)NC(=O)[C@H](C)NC(=O)CNC1=O (H-SSAFGCRIDRIGAQCGLGANSFR-NH2; disulfide 6-15) | 485 | 0.63 | 0.0013
3 | CC[C@H](C)[C@@H]1NC(=O)[C@H](CCCN=C(N)N)NC(=O)[C@H](CC(=O)O)NC(=O)[C@H]([C@@H](C)CC)NC(=O)[C@H](CCCN=C(N)N)NC(=O)[C@@H](NC(=O)CNC(=O)[C@H](Cc2ccccc2)NC(=O)[C@H](CSC)NC(=O)[C@H](CO)NC(=O)[C@@H](N)CO)CSSC[C@@H](C(=O)NCC(=O)N[C@@H](CC(C)C)C(=O)NCC(=O)N[C@@H](CSC)C(=O)N[C@@H](CC(N)=O)C(=O)N[C@@H](CO)C(=O)N[C@@H](Cc2ccccc2)C(=O)N[C@@H](CCCN=C(N)N)C(N)=O)NC(=O)[C@H](CCC(N)=O)NC(=O)[C@H](C)NC(=O)CNC1=O (H-SSC(Me)FGCRIDRIGAQCGLGC(Me)NSFR-NH2; disulfide 6-15) | 369 | 0.59 | 0.0016
4 | CC[C@H](C)[C@@H]1NC(=O)[C@H](CCCN=C(N)N)NC(=O)[C@H](CC(=O)O)NC(=O)[C@H]([C@@H](C)CC)NC(=O)[C@H](CCCN=C(N)N)NC(=O)CNC(=O)CNC(=O)[C@H](Cc2ccccc2)NC(=O)[C@@H](NC(=O)[C@H](CO)NC(=O)[C@@H](N)CO)CSSC[C@@H](C(=O)N[C@@H](CSC)C(=O)N[C@@H](CC(N)=O)C(=O)N[C@@H](CO)C(=O)N[C@@H](Cc2ccccc2)C(=O)N[C@@H](CCCN=C(N)N)C(N)=O)NC(=O)[C@H](CC(C)C)NC(=O)CNC(=O)[C@H](CO)NC(=O)[C@H](CCC(N)=O)NC(=O)[C@H](C)NC(=O)CNC1=O (H-SSCFGGRIDRIGAQSGLCC(Me)NSFR-NH2; disulfide 3-18) | 32 | 1.3 | 0.041
5 | CC[C@H](C)[C@@H]1NC(=O)[C@H](CCCN=C(N)N)NC(=O)[C@H](CC(=O)O)NC(=O)[C@H]([C@@H](C)CC)NC(=O)[C@H](CCCN=C(N)N)NC(=O)CNC(=O)CNC(=O)[C@H](Cc2ccccc2)NC(=O)[C@@H](NC(=O)[C@H](CO)NC(=O)[C@@H](N)CO)CSSC[C@@H](C(=O)N[C@@H](CO)C(=O)N[C@@H](CC(N)=O)C(=O)N[C@@H](CO)C(=O)N[C@@H](Cc2ccccc2)C(=O)N[C@@H](CCCN=C(N)N)C(N)=O)NC(=O)[C@H](CC(C)C)NC(=O)CNC(=O)[C@H](CO)NC(=O)[C@H](CCC(N)=O)NC(=O)[C@H](C)NC(=O)CNC1=O (H-SSCFGGRIDRIGAQSGLCSNSFR-NH2; disulfide 3-18) | 23 | 1.3 | 0.056
6 | CCC[C@H](NC(=O)[C@@H]1CSSC[C@H](NC(=O)[C@H](CO)NC(=O)[C@@H](N)CO)C(=O)N[C@@H](Cc2ccccc2)C(=O)NCC(=O)NCC(=O)N[C@@H](CCCN=C(N)N)C(=O)N[C@@H]([C@@H](C)CC)C(=O)N[C@@H](CC(=O)O)C(=O)N[C@@H](CCCN=C(N)N)C(=O)N[C@@H]([C@@H](C)CC)C(=O)NCC(=O)N[C@@H](C)C(=O)N[C@@H](CCC(N)=O)C(=O)N[C@@H](CO)C(=O)NCC(=O)N[C@@H](CC(C)C)C(=O)N1)C(=O)N[C@@H](CC(N)=O)C(=O)N[C@@H](CO)C(=O)N[C@@H](Cc1ccccc1)C(=O)N[C@@H](CCCN=C(N)N)C(N)=O (H-SSCFGGRIDRIGAQSGLC[Nva]NSFR-NH2; disulfide 3-18) | 13 | 0.63 | 0.047
7 | CC[C@H](C)[C@@H]1NC(=O)[C@H](CCCN=C(N)N)NC(=O)[C@H](CC(=O)O)NC(=O)[C@H]([C@@H](C)CC)NC(=O)[C@H](CCCN=C(N)N)NC(=O)CNC(=O)CNC(=O)[C@H](Cc2ccccc2)NC(=O)[C@@H](NC(=O)[C@H](CO)NC(=O)[C@@H](N)CO)CSSC[C@@H](C(=O)NC(C)C(=O)N[C@@H](CC(N)=O)C(=O)N[C@@H](CO)C(=O)N[C@@H](Cc2ccccc2)C(=O)N[C@@H](CCCN=C(N)N)C(N)=O)NC(=O)[C@H](CC(C)C)NC(=O)CNC(=O)[C@H](CO)NC(=O)[C@H](CCC(N)=O)NC(=O)[C@H](C)NC(=O)CNC1=O (some centres not stated) (H-SSCFGGRIDRIGAQSGLC[ξA]NSFR-NH2; disulfide 3-18) | 6 | 0.94 | 0.16
8 | CC[C@H](C)[C@@H]1NC(=O)[C@H](CCCN=C(N)N)NC(=O)[C@H](CC(=O)O)NC(=O)[C@H]([C@@H](C)CC)NC(=O)[C@H](CCCN=C(N)N)NC(=O)[C@@H](NC(=O)CNC(=O)[C@H](Cc2ccccc2)NC(=O)CNC(=O)[C@H](CO)NC(=O)[C@@H](N)CO)CSSC[C@@H](C(=O)N[C@@H](CC(C)C)C(=O)NCC(=O)NCC(=O)N[C@@H](CC(N)=O)C(=O)N[C@@H](CO)C(=O)N[C@@H](Cc2ccccc2)C(=O)N[C@@H](CCCN=C(N)N)C(N)=O)NC(=O)[C@H](CO)NC(=O)[C@H](CCC(N)=O)NC(=O)[C@H](C)NC(=O)CNC1=O (H-SSGFGCRIDRIGAQSCLGGNSFR-NH2; disulfide 6-16) | 1120 | 0.81 | 0.00072
9 | CC[C@H](C)[C@@H]1NC(=O)[C@H](CCCN=C(N)N)NC(=O)[C@H](CC(=O)O)NC(=O)[C@H]([C@@H](C)CC)NC(=O)[C@H](CCCN=C(N)N)NC(=O)[C@@H](NC(=O)CNC(=O)[C@H](Cc2ccccc2)NC(=O)[C@H](CO)NC(=O)[C@H](CO)NC(=O)[C@@H](N)CO)CSSC[C@@H](C(=O)NCC(=O)N[C@@H](CC(C)C)C(=O)NCC(=O)N[C@@H](CO)C(=O)N[C@@H](CC(N)=O)C(=O)N[C@@H](CO)C(=O)N[C@@H](Cc2ccccc2)C(=O)N[C@@H](CCCN=C(N)N)C(N)=O)NC(=O)[C@H](CCC(N)=O)NC(=O)[C@H](C)NC(=O)CNC1=O (H-SSSFGCRIDRIGAQCGLGSNSFR-NH2; disulfide 6-15) | 293 | 0.44 | 0.0015
